Consider 16 compounds from ChEMBL document CHEMBL1147166, “Structure-activity relationships of methoctramine-related polyamines as muscarinic antagonist: effect of replacing the inner polymethylene chain with cyclic moieties” (Bioorg Med Chem, 2007).

Bounds are passed on as bounds.

Experiment [1] deals with Mus musculus. Kind of experiment: Antinociceptive activity in mouse assessed as licking latency at 5 mg/kg, ip by hot plate method. Particulars: route intraperitoneal. The class given is functional.
For experiment [2], the target named is Muscarinic acetylcholine receptor M3 (Cavia porcellus) (UniProt Q8VH26). Kind of experiment: Antagonist potency at muscarinic receptor M3 in guinea pig ileum. The class given is functional, tissue-based.
Sequence of Muscarinic acetylcholine receptor M3 (Cavia porcellus) (Q8VH26 1-587): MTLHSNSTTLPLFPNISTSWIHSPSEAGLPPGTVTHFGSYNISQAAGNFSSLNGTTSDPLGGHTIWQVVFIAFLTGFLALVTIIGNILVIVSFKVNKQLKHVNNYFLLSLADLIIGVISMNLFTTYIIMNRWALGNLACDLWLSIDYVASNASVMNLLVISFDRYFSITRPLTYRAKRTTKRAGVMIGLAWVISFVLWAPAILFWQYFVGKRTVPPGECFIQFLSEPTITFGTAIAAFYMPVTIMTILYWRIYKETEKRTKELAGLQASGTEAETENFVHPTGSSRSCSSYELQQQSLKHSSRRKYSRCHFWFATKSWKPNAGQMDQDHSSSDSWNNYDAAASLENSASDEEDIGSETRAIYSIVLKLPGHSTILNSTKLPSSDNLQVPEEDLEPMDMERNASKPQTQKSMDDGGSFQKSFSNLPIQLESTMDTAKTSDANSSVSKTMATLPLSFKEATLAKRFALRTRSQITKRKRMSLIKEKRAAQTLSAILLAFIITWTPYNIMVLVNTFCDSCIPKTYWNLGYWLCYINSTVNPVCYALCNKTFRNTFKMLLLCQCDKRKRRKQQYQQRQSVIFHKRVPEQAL
Experiment [3] has as its system Mus musculus. Kind of experiment: Antinociceptive activity in mouse assessed as licking latency at 0.005 ug, icv after 60 mins by hot plate method. The class given is functional.
The test system of experiment [4] is Mus musculus. The experiment can be described thus: Antinociceptive activity in mouse assessed as licking latency at 0.05 ug, icv after 30 mins by hot plate method. The class given is functional.
Experiment [5] has as its target T1, Muscarinic acetylcholine receptor M5 (Homo sapiens, UniProt P08912).
T1 sequence (P08912 whole entry): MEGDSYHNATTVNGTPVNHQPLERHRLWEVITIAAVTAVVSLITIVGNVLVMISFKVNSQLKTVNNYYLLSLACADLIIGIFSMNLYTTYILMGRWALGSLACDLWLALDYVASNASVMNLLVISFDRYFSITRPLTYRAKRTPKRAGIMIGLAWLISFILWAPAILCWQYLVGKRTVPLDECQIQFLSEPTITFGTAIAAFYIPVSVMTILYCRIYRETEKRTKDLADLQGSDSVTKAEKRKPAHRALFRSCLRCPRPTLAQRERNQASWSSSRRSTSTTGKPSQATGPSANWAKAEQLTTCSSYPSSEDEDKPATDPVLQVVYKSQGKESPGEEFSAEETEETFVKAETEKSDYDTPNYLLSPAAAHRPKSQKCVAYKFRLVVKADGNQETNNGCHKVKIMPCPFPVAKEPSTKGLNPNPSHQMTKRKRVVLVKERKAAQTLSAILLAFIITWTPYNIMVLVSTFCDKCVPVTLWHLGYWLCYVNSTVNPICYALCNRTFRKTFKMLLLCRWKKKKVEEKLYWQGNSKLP
The experiment can be described thus: Displacement of [3H] N-methyl-scopolamine chloride from human muscarinic receptor M5 expressed in CHO cells. The class given is cell-based.

The subject of experiment [6] is Mus musculus. The experiment can be described thus: Antinociceptive activity in mouse assessed as licking latency at 0.05 ug, icv after 60 mins by hot plate method. The class given is functional.
Experiment [7] relates to Mus musculus. The experiment can be described thus: Antinociceptive activity in mouse assessed as licking latency at 0.01 ug, icv after 15 mins by hot plate method. The class given is functional.
The subject of experiment [8] is Mus musculus. The experiment can be described thus: Antinociceptive activity in mouse assessed as licking latency at 0.005 ug, icv after 30 mins by hot plate method. The class given is functional.
The subject of experiment [9] is Mus musculus. The experiment can be described thus: Antinociceptive activity in mouse assessed as licking latency at 0.01 ug, icv after 60 mins by hot plate method. The class given is functional.
Experiment [10] concerns Mus musculus. The experiment can be described thus: Antinociceptive activity in mouse assessed as licking latency at 0.05 ug, icv after 45 mins by hot plate method. The class given is functional.
For experiment [11], the system named is Mus musculus. Kind of experiment: Antinociceptive activity in mouse assessed as licking latency at 0.01 ug, icv after 45 mins by hot plate method. The class given is functional.
For experiment [12], the system named is Mus musculus. The experiment can be described thus: Antinociceptive activity in mouse assessed as licking latency at 0.05 ug, icv after 15 mins by hot plate method. The class given is functional.
The test system of experiment [13] is Mus musculus. The experiment can be described thus: Antinociceptive activity in mouse assessed as licking latency at 0.005 ug, icv after 15 mins by hot plate method. The class given is functional.
Experiment [14] concerns the target Muscarinic acetylcholine receptor M3 (Homo sapiens, UniProt P20309). The experiment can be described thus: Displacement of [3H] N-methyl-scopolamine chloride from human muscarinic receptor M3 expressed in CHO cells. The class given is cell-based.
The subject of experiment [15] is Mus musculus. The experiment can be described thus: Antinociceptive activity in mouse assessed as licking latency at 0.01 ug, icv after 30 mins by hot plate method. The class given is functional.
Experiment [16] addresses T2, Muscarinic acetylcholine receptor M4 (Homo sapiens) (UniProt P08173).
T2 sequence (whole entry): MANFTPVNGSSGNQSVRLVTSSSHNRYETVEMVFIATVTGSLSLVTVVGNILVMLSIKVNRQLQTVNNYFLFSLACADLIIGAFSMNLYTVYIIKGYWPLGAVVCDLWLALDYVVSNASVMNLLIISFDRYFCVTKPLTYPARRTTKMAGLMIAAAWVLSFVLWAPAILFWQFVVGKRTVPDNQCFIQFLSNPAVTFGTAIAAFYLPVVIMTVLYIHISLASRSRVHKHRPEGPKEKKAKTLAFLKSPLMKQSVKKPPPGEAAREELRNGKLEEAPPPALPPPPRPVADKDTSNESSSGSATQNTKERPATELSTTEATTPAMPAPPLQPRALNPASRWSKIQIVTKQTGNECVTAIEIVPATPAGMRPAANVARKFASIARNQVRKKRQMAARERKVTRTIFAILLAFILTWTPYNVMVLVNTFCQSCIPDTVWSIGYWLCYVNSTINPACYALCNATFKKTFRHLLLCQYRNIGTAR
The experiment can be described thus: Antagonist potency at muscarinic receptor M4 in rabbit vas deferens. Particulars: Oryctolagus cuniculus, target entry is the homologue from another species. The class given is functional, tissue-based.

Experiment [17] concerns the target T3, Muscarinic acetylcholine receptor M1 (Homo sapiens, UniProt P11229).
T3 sequence (P11229 whole entry): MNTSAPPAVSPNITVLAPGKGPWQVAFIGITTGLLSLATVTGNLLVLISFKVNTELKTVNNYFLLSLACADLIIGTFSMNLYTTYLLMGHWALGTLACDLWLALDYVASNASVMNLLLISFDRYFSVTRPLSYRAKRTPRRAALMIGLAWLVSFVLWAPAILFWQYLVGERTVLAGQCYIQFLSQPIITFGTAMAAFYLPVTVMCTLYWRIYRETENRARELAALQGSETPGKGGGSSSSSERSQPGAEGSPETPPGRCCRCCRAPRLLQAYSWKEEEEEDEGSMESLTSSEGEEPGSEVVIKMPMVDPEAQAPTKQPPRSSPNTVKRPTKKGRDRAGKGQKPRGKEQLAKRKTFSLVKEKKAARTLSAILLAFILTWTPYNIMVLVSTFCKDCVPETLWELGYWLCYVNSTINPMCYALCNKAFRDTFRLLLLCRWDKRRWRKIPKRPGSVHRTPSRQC
The experiment can be described thus: Displacement of [3H] N-methyl-scopolamine chloride from human muscarinic receptor M1 expressed in CHO cells. The class given is cell-based.

For experiment [18], the system named is Mus musculus. Kind of experiment: Antinociceptive activity in mouse assessed as licking latency at 1.0 ug, icv after 60 mins by hot plate method. The class given is functional.
Experiment [19] relates to Mus musculus. The experiment can be described thus: Antinociceptive activity in mouse assessed as licking latency at 1.0 ug, icv after 15 mins by hot plate method. The class given is functional.
In experiment [20] the test system is Mus musculus. The experiment can be described thus: Antinociceptive activity in mouse assessed as licking latency at 1.0 ug, icv after 30 mins by hot plate method. The class given is functional.
The test system of experiment [21] is Mus musculus. The experiment can be described thus: Antinociceptive activity in mouse assessed as licking latency at 1.0 ug, icv after 45 mins by hot plate method. The class given is functional.
The test system of experiment [22] is Mus musculus. The experiment can be described thus: Antinociceptive activity in mouse assessed as licking latency at 0.005 ug, icv after 45 mins by hot plate method. The class given is functional.
The target in experiment [23] is T4, Muscarinic acetylcholine receptor M4 (Homo sapiens, UniProt P08173).
T4 sequence (P08173 whole entry): T2 sequence (whole entry)
Kind of experiment: Displacement of [3H] N-methyl-scopolamine chloride from human muscarinic receptor M4 expressed in CHO cells. The class given is cell-based.

The target of experiment [24] is T5, Muscarinic acetylcholine receptor M2 (Homo sapiens) (UniProt P08172).
T5 sequence (whole entry): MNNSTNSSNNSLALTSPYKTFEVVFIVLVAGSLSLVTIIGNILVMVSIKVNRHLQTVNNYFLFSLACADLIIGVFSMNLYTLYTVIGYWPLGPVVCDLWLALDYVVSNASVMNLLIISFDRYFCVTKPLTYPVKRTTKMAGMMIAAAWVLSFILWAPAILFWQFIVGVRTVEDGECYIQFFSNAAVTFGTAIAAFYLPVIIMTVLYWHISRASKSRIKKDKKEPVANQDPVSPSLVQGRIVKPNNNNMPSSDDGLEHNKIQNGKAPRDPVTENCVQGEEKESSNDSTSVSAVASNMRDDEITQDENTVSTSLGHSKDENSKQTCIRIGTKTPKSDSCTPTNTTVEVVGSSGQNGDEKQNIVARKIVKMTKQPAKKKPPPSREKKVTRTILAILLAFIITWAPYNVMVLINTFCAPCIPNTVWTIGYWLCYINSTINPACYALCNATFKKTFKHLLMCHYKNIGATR
The experiment can be described thus: Antagonist potency at muscarinic receptor M2 in guinea pig atrium. The class given is functional, tissue-based. As to conditions: Cavia porcellus; Cardiac atrium; target entry is the homologue from another species.

Another experiment concerns the target Cholinesterase (Homo sapiens, UniProt P06276). Kind of experiment: Inhibition of human serum recombinant BChE after 20 mins.
The next experiment deals with Acetylcholinesterase (Homo sapiens, UniProt P22303). Kind of experiment: Inhibition of human erythrocyte recombinant AchE after 20 mins.
Sequence of Acetylcholinesterase (P22303 whole entry): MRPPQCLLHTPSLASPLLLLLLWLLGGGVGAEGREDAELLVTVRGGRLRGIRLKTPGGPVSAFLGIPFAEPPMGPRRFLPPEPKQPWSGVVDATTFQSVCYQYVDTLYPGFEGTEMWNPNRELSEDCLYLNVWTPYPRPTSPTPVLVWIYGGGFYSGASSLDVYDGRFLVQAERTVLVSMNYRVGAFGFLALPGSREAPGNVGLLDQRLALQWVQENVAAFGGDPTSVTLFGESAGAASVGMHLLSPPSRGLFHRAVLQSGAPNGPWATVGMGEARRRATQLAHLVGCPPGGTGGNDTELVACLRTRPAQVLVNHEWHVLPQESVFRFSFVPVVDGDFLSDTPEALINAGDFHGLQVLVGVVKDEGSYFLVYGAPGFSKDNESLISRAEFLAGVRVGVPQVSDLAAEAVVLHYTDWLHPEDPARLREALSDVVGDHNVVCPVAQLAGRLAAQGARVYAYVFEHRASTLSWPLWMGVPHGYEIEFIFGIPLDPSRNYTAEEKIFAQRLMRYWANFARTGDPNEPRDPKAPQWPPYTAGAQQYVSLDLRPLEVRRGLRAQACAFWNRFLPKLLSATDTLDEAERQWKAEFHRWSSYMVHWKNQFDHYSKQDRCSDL
Experiment [25] deals with Mus musculus. Kind of experiment: Antinociceptive activity in mouse assessed as licking latency at 1 mg/kg, ip by hot plate method. Particulars: route intraperitoneal. The class given is functional.

Sequence of Cholinesterase (P06276 whole entry): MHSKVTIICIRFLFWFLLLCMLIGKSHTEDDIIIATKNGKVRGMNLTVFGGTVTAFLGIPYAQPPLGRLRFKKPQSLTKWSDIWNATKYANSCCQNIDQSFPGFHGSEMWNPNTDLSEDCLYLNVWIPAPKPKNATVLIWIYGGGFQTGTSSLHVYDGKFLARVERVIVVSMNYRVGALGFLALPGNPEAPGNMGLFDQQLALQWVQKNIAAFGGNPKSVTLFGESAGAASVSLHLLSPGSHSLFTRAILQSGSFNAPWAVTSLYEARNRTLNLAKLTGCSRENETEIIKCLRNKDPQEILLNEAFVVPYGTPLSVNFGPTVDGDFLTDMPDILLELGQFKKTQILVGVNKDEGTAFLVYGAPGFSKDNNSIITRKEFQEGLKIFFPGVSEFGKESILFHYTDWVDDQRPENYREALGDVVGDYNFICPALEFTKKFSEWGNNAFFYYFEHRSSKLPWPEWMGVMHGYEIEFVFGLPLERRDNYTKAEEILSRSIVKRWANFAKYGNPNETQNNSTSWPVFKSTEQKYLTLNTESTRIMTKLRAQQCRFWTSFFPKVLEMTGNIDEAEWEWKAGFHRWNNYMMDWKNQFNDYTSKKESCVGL
Sequence of Muscarinic acetylcholine receptor M3 (P20309 whole entry): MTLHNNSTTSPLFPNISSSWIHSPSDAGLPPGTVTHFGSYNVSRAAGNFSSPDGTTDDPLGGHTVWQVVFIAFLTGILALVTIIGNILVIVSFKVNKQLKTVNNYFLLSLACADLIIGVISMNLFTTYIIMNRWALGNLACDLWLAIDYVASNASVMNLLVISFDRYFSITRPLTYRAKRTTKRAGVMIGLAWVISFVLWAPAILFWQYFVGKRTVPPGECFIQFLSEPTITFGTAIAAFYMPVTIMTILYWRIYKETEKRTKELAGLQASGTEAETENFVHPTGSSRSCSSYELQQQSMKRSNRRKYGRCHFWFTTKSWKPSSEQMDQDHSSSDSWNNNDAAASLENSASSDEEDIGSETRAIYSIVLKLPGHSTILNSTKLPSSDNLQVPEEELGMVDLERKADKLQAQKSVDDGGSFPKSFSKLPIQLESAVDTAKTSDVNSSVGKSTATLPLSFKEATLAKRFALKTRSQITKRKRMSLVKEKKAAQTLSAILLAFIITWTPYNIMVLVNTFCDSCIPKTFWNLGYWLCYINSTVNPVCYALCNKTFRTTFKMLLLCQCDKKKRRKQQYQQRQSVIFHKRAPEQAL

For `CN1[C@@H]2CC[C@H]1C[C@@H](OC(=O)C(CO)c1ccccc1)C2` (some centres not stated) [ATROPINE], the Activity in the experiment on Mus musculus [1] was 14.9 s.
Turning to `COc1ccccc1CNCCCCCCNCCCCCCCCNCCCCCCNCc1ccccc1OC` [METHOCTRAMINE], the pKb came to 6.32 in experiment [2] and 6.45 in [16]. The Time came out at 16.6 s in the experiment with Mus musculus [3]; 23.9 s with Mus musculus [4]; 14.4 s with Mus musculus [6]; 23.4 s in the experiment on Mus musculus [7]; 18.4 s in the experiment on Mus musculus [8]; 17.2 s in the experiment with Mus musculus [9]. Further, the Time came out at 18.7 s in the experiment on Mus musculus [10]; 19.3 s with Mus musculus [11]; 24.1 s with Mus musculus [12]; 20.2 s with Mus musculus [13]; 22.5 s in the experiment on Mus musculus [15]; 15.5 s in the experiment on Mus musculus [18]. Further, the Time with Mus musculus [19] turned out to be 20.6 s; with Mus musculus [20] it was 21.3 s; with Mus musculus [21] it was 17.5 s; in the experiment with Mus musculus [22], 18.3 s. Further, the Ki in experiment [5] was 0.55 µM; in [14], 0.525 µM; in experiment [17] it was 0.0832 µM; in experiment [23], 0.107 µM.
In the case of `COc1ccccc1CNCCCCCC(=O)N1CCC(CCC2CCN(C(=O)CCCCCNCc3ccccc3OC)CC2)CC1`, the pKb stood at 5.14 in [2], 5.91 in experiment [24] and 6.09 in [16]. Besides, the IC50 at Cholinesterase was 18.6 µM; at Acetylcholinesterase it was 0.135 µM.
Take `COc1ccccc1CNCCCCCC(=O)Nc1ccc(CCc2ccc(NC(=O)CCCCCNCc3ccccc3OC)cc2)cc1`: the negative-log Kb (pKb) in experiment [2], in [24] and in experiment [16] was less than 5 in each case.
Turning to `COc1ccccc1CNCCCCCCN1CCC(C2CCN(CCCCCCNCc3ccccc3OC)CC2)CC1`, the negative-log Kb (pKb) in [2] was determined as 6.08; in experiment [24] it was 7.12; in experiment [16], 6.13.
For `COc1ccccc1CNCCCCCC(=O)Nc1ccc(-c2ccc(NC(=O)CCCCCNCc3ccccc3OC)cc2)cc1`, the figures for the pKb in experiment [24] and in experiment [16] were 5.31 and 5.21, respectively.
Regarding `COc1ccccc1CNCCCCCCNc1ccc(CCc2ccc(NCCCCCCNCc3ccccc3OC)cc2)cc1`, the values for the pKb in experiment [24] and in experiment [16] were less than 5 and less than 5.52, respectively.
As for `COc1ccccc1CNCCCCCCNc1ccc(Cc2ccc(NCCCCCCNCc3ccccc3OC)cc2)cc1`, the pKb in experiment [2] is 5.35; in experiment [24], less than 5; in [16], less than 5.
As to `COc1ccccc1CNCCCCCCNc1ccc(-c2ccc(NCCCCCCNCc3ccccc3OC)cc2)cc1`, the pKb in experiment [24] and in [16] was less than 5 each time.
For `COc1ccccc1CNCCCCCC(=O)N1CCC(C2CCN(C(=O)CCCCCNCc3ccccc3OC)CC2)CC1`, the pKb in experiment [2] was determined as 5.62; in [24] it was 6.5; in [16], 6.
In the same order, the values of `COc1ccccc1CNCCCCCC(=O)N1CCC(CCCC2CCN(C(=O)CCCCCNCc3ccccc3OC)CC2)CC1` are 5.09, 5.11 and less than 5.
Regarding `C=CCN1CC[C@]23c4c5ccc(O)c4O[C@H]2C(=O)CC[C@@]3(O)[C@H]1C5` [NALOXONE], the Activity with Mus musculus [25] is listed as 15.1 s.
As for `COc1ccccc1CNCCCCCCN1CCC(CCCC2CCN(CCCCCCNCc3ccccc3OC)CC2)CC1`, the pKb in experiment [2] worked out at 6.37; in experiment [24], 7.52; in [16], 5.64.
On the same counts, the results for `COc1ccccc1CNCCCCCC(=O)Nc1ccc(Cc2ccc(NC(=O)CCCCCNCc3ccccc3OC)cc2)cc1` are 5.32, 5.47 and less than 5.
On the same counts, the results for `COc1ccccc1CNCCCCCCN1CCC(CC2CCN(CCCCCCNCc3ccccc3OC)CC2)CC1` are 5.82, 7.16 and 5.39.
In the same order, the values of `COc1ccccc1CNCCCCCC(=O)N1CCC(CC2CCN(C(=O)CCCCCNCc3ccccc3OC)CC2)CC1` are 5.48, 6.29 and 5.37.
